Data reported in patent publication US9746484B2, “Binding partners specific for vitamin D epimers in vitamin D assays” (Siemens Healthcare Diagnostics Inc., priority 2014, dated 2017).
Where “and” joins values, the source holds several entries; their conditions need not be identical. Identical values can stand only once.

System: biotinylated monoclonal anti-25OH vitamin D antibody
Assay: LOCI 25(OH)D immunoassay, 3-epimer cross-reactivity without blocking antibody
Type: binding, sheep
Details: no anti-3-epimer antibody; for Avg. Cross-reactivity, No anti-3-epimer VD Ab Added: average of ten patient sera spiked with 100 ng/mL 3-epimer vitamin D3
Protocol: The 25OH Vitamin D (25(OH)D) immunoassay format employed was a homogeneous competitive chemiluminescent immunoassay based on LOCI® assay technology. The assay was performed on the Siemens Dimension® EXL automated integrated clinical chemistry system (Siemens Healthcare Diagnostics Inc., Deerfield, Ill.). The assay measured the total concentration of 25(OH)D2 and/or 25(OH)D3 in serum and plasma samples. The LOCI® assay reagents included a releasing reagent, two synthetic bead reagents and a biotinylated monoclonal anti-25OH vitamin D antibody reagent. The first bead reagent (designated “Sensibeads”) was coated with streptavidin and contained a photosensitive dye. The second bead reagent (designated “Chemibeads”) was coated with a 25(OH)D3 analog and contained chemiluminescent dye. Sample was incubated with the releasing reagent to release 25(OH)D molecules including 3-epimeric compounds from vitamin D binding proteins. The reaction mixture was then incubated with biotinylated antibody to form a 25(OH)D-biotinylated antibody complex. […] Chemibeads were added to bind excess free biotinylated antibody. Sensibeads were then added to bind to the biotin portion of the biotinylated antibody. Aggregates of Chemibead-analog/antibody-biotin/streptavidin-Sensibeads were formed as a result. Illumination of the reaction mixture with light at 680 nm generates singlet oxygen from Sensibeads, which diffused into the Chemibeads and triggered a chemiluminescent reaction. The resulting chemiluminescent signal was measured at 612 nm and is inversely proportional to the concentration of total 25(OH)D in the sample.
The effect of adding anti-3-epimer-VD antibody 8F10.1 (anti-3-epimer VD Ab) on the 3-epimer cross-reactivity for the assay is shown in Table 1. […] The 3-epimer cross-reactivity was calculated by the difference between 25(OH)D2 or 25(OH)D3 values with and without the spiked 3-epimer compound divided by the amount of added 3-epimer compound.

Question: What does the source list for `C=C1CC[C@@H](O)C/C1=C/C=C1\CCC[C@]2(C)[C@@H]([C@H](C)CCCC(C)(C)O)CC[C@@H]12` [3-epimer D3, 3-epi-25-hydroxyvitamin D3]?
Answer: Avg. Cross-reactivity, No anti-3-epimer VD Ab Added: 13.7%; Avg. Cross-reactivity, No anti-3-epimer VD Ab Added (listed as 3-epimer vitamin D3 compound): 13.7%; 3-epimer Cross-Reactivity, No anti-3-epimer VD Ab Added (individual patient sera (Sample ID 1-10) spiked with 100 ng/mL 3-epimer vitamin D3): 17.9% (2×) and 11.9% and 12.6% and 16.1% and 10.2% and 9.1% and 10.5% and 15.3% and 15.5%
